Laboratory results: article PMC5696560 (Bioorganic & Medicinal Chemistry Letters, 2017)
pIC50: −log10 of the molar value. Converted amounts (≈) assume the structure as drawn.

Tests used:
M.tb strain H37Rv [1] = experiment: MICs determined at Tibotec (slightly different protocol); assay type: cell-based; details: Mycobacterium tuberculosis, MICs determined at Tibotec (Mechelen, Belgium), read-out: MIC90 (MABA, footnote d)
From the text: Given that good activity had been reported for furan 2 (albeit in M. smegmatis),[11] we evaluated a series of both 2- and 3-furyl analogues bearing different C-unit substituents.

[2] = human, microsomes
in vitro = details: human, human liver microsomes
M.tb strain H37Rv [3] = experiment: MABA: inhibition of growth of M.tb H37Rv under aerobic (replicating) conditions; assay type: cell-based; details: for MIC90 / MIC: Mycobacterium tuberculosis, H37RV; for anti-M.tb activity (in words): M.tb H37Rv, comparison with 1; for MIC: read-out: MIC90 MABA
M.tb strain H37Rv [4] = experiment: LORA: inhibition of growth of M.tb H37Rv under non-replicating conditions; assay type: cell-based; details: Mycobacterium tuberculosis
Description: The compounds were evaluated for their inhibition of growth (measured as MIC90 values in µg/mL) against M.tb (strain H37Rv) under both replicating (MABA)[16] or non-replicating (LORA)[17] conditions. […] In a search for less lipophilic analogues, we prepared and evaluated compounds where this phenyl B-ring unit was replaced with different heterocycles of varying lipophilicity (Table 1).

CYP 3A4 = CYP 3A4 (Homo sapiens, UniProt P08684); experiment: Inhibition of CYP 3A4; assay type: in vitro ADME; details: 20 min exposure
Chain of CYP 3A4 (P08684 whole entry, species assumed): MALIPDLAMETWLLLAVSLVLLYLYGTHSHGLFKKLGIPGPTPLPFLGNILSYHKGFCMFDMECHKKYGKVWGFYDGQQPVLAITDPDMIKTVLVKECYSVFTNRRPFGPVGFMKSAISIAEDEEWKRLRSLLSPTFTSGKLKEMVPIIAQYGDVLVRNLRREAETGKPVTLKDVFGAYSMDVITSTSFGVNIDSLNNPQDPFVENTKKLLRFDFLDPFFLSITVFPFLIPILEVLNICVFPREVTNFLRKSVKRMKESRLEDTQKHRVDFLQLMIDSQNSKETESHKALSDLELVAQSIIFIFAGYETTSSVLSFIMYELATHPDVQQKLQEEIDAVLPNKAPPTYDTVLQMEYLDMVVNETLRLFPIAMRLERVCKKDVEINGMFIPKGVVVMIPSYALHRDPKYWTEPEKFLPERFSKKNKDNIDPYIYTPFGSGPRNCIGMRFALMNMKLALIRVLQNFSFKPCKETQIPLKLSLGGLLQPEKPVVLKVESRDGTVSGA

[5] = rat, in vivo

Structure (SMILES) | MIC90 (M.tb strain H37Rv [3]) [mg/L] | MIC90 (M.tb strain H37Rv [4]) [mg/L] | further results
COc1nc2ccc(Br)cc2cc1C(c1ccc(C)s1)C(O)(CCN(C)C)c1cccc(F)c1 (stereo not shown) [Compound 11] |  |  | MIC90 (M.tb strain H37Rv [1]): 0.47 mg/L (≈ 0.865 µM)
COc1cc([C@H](c2cc3cc(Br)ccc3nc2OC)[C@@](O)(CCN(C)C)c2cccc(F)c2)cnc1OC [Compound 43] | 0.47 (≈ 0.804 µM) | 0.54 (≈ 0.924 µM) | Clint [2]: 36 µL/min/mg/protein; half-life (in vitro): 19 min; pIC50 (CYP 3A4): < 5.00; F(%) oral bioavailability [5]: 36%
COc1nc2ccc(Br)cc2cc1C(c1ccco1)C(O)(CCN(C)C)c1cccc2c1OCO2 (stereo not shown) [Compound 19] |  |  | MIC90 (M.tb strain H37Rv [1]): 0.69 mg/L (≈ 1.28 µM)
CCSc1ccc([C@H](c2cc3cc(Br)ccc3nc2OC)[C@@](O)(CCN(C)C)c2cccc(F)c2)cn1 [Compound 39] | 0.14 (≈ 0.239 µM) | 0.15 (≈ 0.257 µM) | Clint [2]: 11 µL/min/mg/protein; half-life (in vitro): 64 min; pIC50 (CYP 3A4): 5.00; F(%) oral bioavailability [5]: 30%
COc1nc2ccc(Br)cc2cc1C(c1ccoc1)C(O)(CCN(C)C)c1cccc(OC(F)(F)F)c1 (stereo not shown) [Compound 25] |  |  | MIC90 (M.tb strain H37Rv [1]): 0.76 mg/L (≈ 1.31 µM)
COc1nc2ccc(Br)cc2cc1C(c1ccco1)C(O)(CCN(C)C)c1cccc(F)c1 (stereo not shown) [Compound 15] |  |  | MIC90 (M.tb strain H37Rv [1]): 0.74 mg/L (≈ 1.44 µM)
COc1nc2ccc(C#N)cc2cc1[C@@H](c1ccnc(OC)c1OC)[C@@](O)(CCN(C)C)c1cccc(C)c1 [Compound 46] | 0.15 (≈ 0.285 µM) | 0.14 (≈ 0.266 µM) | 
COc1cccc([C@](O)(CCN(C)C)[C@H](c2cncc(C)c2)c2cc3cc(Br)ccc3nc2OC)c1 [Compound 40] | 1.9 (≈ 3.45 µM) | 2.2 (≈ 4 µM) | 
COc1nc2ccc(Br)cc2cc1C(c1ccoc1)C(O)(CCN(C)C)c1ccccn1 (stereo not shown) [Compound 28] |  |  | MIC90 (M.tb strain H37Rv [1]): 1.8 mg/L (≈ 3.63 µM)
COc1nc2ccc(Br)cc2cc1[C@@H](c1ccnc(OC)c1OC)[C@@](O)(CCN(C)C)c1cccc(F)c1 [Compound 44] | 0.02 (≈ 0.0342 µM) | 0.07 (≈ 0.12 µM) | 
COc1ncccc1[C@H](c1cc2cc(Br)ccc2nc1OC)[C@@](O)(CCN(C)C)c1cccc(C#N)c1 [Compound 33] | 0.34 (≈ 0.606 µM) | 0.75 (≈ 1.34 µM) | 
COc1nc2ccc(Br)cc2cc1[C@@H](c1ccc(C)s1)[C@@](O)(CCN(C)C)c1cccnc1OC [Compound 12] | 0.22 (≈ 0.395 µM) | 0.52 (≈ 0.934 µM) | anti-M.tb activity (in words) (M.tb strain H37Rv [3]): effective inhibitors
COc1nc2ccc(Br)cc2cc1[C@@H](c1ccc(SC)nc1)[C@@](O)(CCN(C)C)c1cccc(F)c1 [Compound 38] | 0.14 (≈ 0.245 µM) | 0.37 (≈ 0.649 µM) | 
COc1cccc([C@](O)(CCN(C)C)[C@@H](c2cc3cc(Br)ccc3nc2OC)c2cc(C)sc2C)n1 [Compound 5] | 0.12 (≈ 0.21 µM) | 0.15 (≈ 0.263 µM) | MIC (M.tb strain H37Rv [3]): 0.05 to 0.58 mg/L (≈ 0.0876 to 1.02 µM)
COc1nc2ccc(Br)cc2cc1[C@@H](c1cc(C)sc1C)[C@@](O)(CCN(C)C)c1cccnc1OC [Compound 8] | 0.12 (≈ 0.21 µM) | 0.2 (≈ 0.351 µM) | MIC (M.tb strain H37Rv [3]): 0.05 to 0.58 mg/L (≈ 0.0876 to 1.02 µM)
COc1nc2ccc(Br)cc2cc1[C@@H](c1cc(C)sc1C)[C@@](O)(CCN(C)C)c1cncc(C)c1 (racemic) [Compound 6] | 0.58 (≈ 1.05 µM) | 0.3 (≈ 0.541 µM) | MIC (M.tb strain H37Rv [3]): 0.05 to 0.58 mg/L (≈ 0.0902 to 1.05 µM)
COc1nc2ccc(Br)cc2cc1C(c1ccco1)C(O)(CCN(C)C)c1cccc(OC(F)(F)F)c1 (stereo not shown) [Compound 17] |  |  | MIC90 (M.tb strain H37Rv [1]): 0.76 mg/L (≈ 1.31 µM)
COc1ncccc1[C@H](c1cc2cc(C#N)ccc2nc1OC)[C@@](O)(CCN(C)C)c1cccc(C#N)c1 [Compound 34] | 0.38 (≈ 0.749 µM) | 0.82 (≈ 1.62 µM) | 
COc1nc2ccc(Br)cc2cc1[C@@H](c1cccnc1N(C)C)[C@@](O)(CCN(C)C)c1cccc(F)c1 [Compound 35] | 0.18 (≈ 0.317 µM) | 0.2 (≈ 0.352 µM) | Clint [2]: 45 µL/min/mg/protein; half-life (in vitro): 15 min; pIC50 (CYP 3A4): < 4.30
COc1nc2ccc(Br)cc2cc1C(c1ccoc1)C(O)(CCN(C)C)c1cccc2c1OCO2 (stereo not shown) [Compound 27] |  |  | MIC90 (M.tb strain H37Rv [1]): 0.9 mg/L (≈ 1.67 µM)
COc1cccc([C@](O)(CCN(C)C)[C@@H](c2cc3cc(Br)ccc3nc2OC)c2ccnc(OC)c2OC)c1 [Compound 47] | < 0.02 |  | anti-M.tb activity (in words) (M.tb strain H37Rv [3]): retain the potency of 1
COc1nc2ccc(Br)cc2cc1[C@@H](c1ccnc(OC)c1OC)[C@@](O)(CCN(C)C)c1cccc(OC(F)F)c1 [Compound 48] | < 0.02 |  | Clint [2]: 11 µL/min/mg/protein; half-life (in vitro): 61 min; anti-M.tb activity (in words) (M.tb strain H37Rv [3]): retain the potency of 1; pIC50 (CYP 3A4): < 5.00
CCN(CC)c1ccc([C@H](c2cc3cc(Br)ccc3nc2OC)[C@@](O)(CCN(C)C)c2cccc(F)c2)cn1 [Compound 37] | 0.02 (≈ 0.0336 µM) |  | 
COc1nc2ccc(Br)cc2cc1[C@@H](c1cncc(C)c1)[C@@](O)(CCN(C)C)c1cccc(C#N)c1 [Compound 41] | 1.32 (≈ 2.42 µM) | 3.38 (≈ 6.2 µM) | 
